The source of these data is patent publication US10919896B2, “Preparation and uses of pyrimidinone derivatives” (Cancer Research Technology Limited, priority 2016, dated 2021).

Experiment [1] concerns Cdc7 (pS53MCM2 levels in HCT116 cells). In words: Cdc7 Cell Pharmacodynamics Assay Method 1: pS53MCM2 levels in HCT116 cells, 6 hours. It counts as cell-based. The note with it: Homo sapiens, HCT-116, 6 h, read-out: Biomarker Method 1 (pEC50) (converted). From the text:
This protocol describes a method to investigate the inhibition of Cdc7 activity of compounds by measuring pS53MCM2 levels in cells after treatment.
• HCT116 cells (wild type P53 positive) • McCoys 5A media (PAA Laboratories Ltd, E15-022) • 10% FCS (Sera Laboratories International Ltd, EU000F Batch:108005) • 100× L-Glutamine (Invitrogen, 25030-024) • D-PBS without CaCl2 and MgCl2 (Invitrogen, ref 14190-094) • Trypsin/EDTA (Invitrogen 25300-054) • 2% BSA in PBS • Cell Extraction Buffer (Invitrogen FNN0011) • Protease inhibitor cocktail (Sigma P-2714) • PMSF 0.3M stock in DMSO (Sigma P7626) • Antibody-rabbit pMCM2 Ser53 (Bethyl #A300-756A) • Antibody-goat MCM2 (Bethyl #A300-122A) • Antibody-goat Anti Rabbit IgG HRP (Perbio Science UK Ltd 31462) • 1×PBS • FACE Wash buffer (0.02% Triton X100 in 1×PBS) • SuperSignal ELISA Pico Chemiluminescent Substrate (Perbio Science UK Ltd 37070) Method • 72 hours prior to the start of the experiment plate 1×10^6 HCT 116 cells in a 150 cm^2 flask in complete McCoys 5A media (+10% FCS+1× L-glutamine). • Plate 20,000 HCT116 cells per well in standard TC treated 96 well plate in 100 μL complete McCoys 5A media. • Allow cells to settle overnight in incubator set at 37° C. and 5% CO2. • Remove intermediate plate from fridge and place at 37° C. overnight to allow to equilibrate. • Cell treatment: cell assay plate 100 μL; daughter to cell transfer volume 3.33 μL; daughter volume 45 μL; mother plate to daughter volume 5 μL. • Once all cells are treated remove the cells to the incubator and incubate for 6 hours. • Dilute the capture antibody (total MCM2#A300-122A) 1 in 250 in the required volume of PBS (5 mL per assay plate) and add 50 μL to each well of a Hybond plate excluding wells 12E to 12H. In these wells add 50 μL PBS. Seal the plate and incubate at room temperature for a minimum of 2 hours. • Defrost aliquot of Invitrogen Cell Extraction Buffer (FNN0011) on ice and supplement with appropriate volume of both Sigma protease inhibitor cocktail (P-2714) and PMSF (final conc 1 mM from a 1 M stock in DMSO). • After the 6 hour cell treatment time tap out the media from the assay plates and place them in the −70° C. freezer for at least 5 minutes. • Remove plates from freezer and add 20 μL of ice cold complete lysis buffer on ice. Incubate cells for 30 minutes at 4° C. • Add 80 μL per well 2% BSA. • Transfer 80 μL from the lysis plate to the same wells in the capture/ELISA plate. Cover with plate seal and incubate plates overnight at 4° C. • Wash plates with PBS, remove any residual remaining liquid and add 50 μL per well of pMCM2 Ser53 antibody (#A300-756A) diluted 1 in 100 in 2% BSA. Cover plate and incubate at room temperature for 2 hours with gentle shaking. • Wash plates with PBS, remove any residual remaining liquid and Incubate with 50 μL goat anti rabbit antibody (1 in 800 dilution in 2% BSA) for 1 hour at room temperature. • Wash plates with PBS, remove any residual remaining liquid and add 50 μL mixed SuperSignal Pico substrate. • Incubate each plate for 5 minutes at room temperature shielding the plates from direct light (with a cover plate). Read plates with the luminescent detection. Method 2A and 2B

A further experiment has as its target Cdc7/ASK (Homo sapiens, UniProt O00311). In words: Cdc7 Biochemical Assay Method 2: 384 well mobility shift assay (EZ Reader II), MCM2 peptide substrate. The conditions noted are these: 12.5 μM ATP, read-out: Biochemical Method 2 (pIC50) (converted). Further details: purchased. On the procedure:
This protocol describes a method for assaying Cdc7/ASK for activity. The assay is a 384 well mobility shift assay (MSA) run on the EZ Reader II microfluidics plate reader (Caliper LifeSciences), utilising a peptide substrate based on the MCM2 sequence. The assay technology is based on the change in mobility between the peptide substrate and the phosphorylated product. A 10 nL volume of the reaction mixture is sipped onto the microfluidic chip where the substrate and product are separated by electrophoresis and detected via laser-induced fluorescence (488 nm LED). The reaction can be monitored in real-time for kinetic experiments or as an end-point for IC50 determinations. The % conversion of substrate is calculated from peak heights of product (P) and substrate (S) peptides (% conversion=P/(P+S)*100).
• 10× Assay Buffer: 200 mM HEPES pH 8, 100 mM MgCl2, 0.1% v/v Triton X-100 and 15 mM DTT. Prepare fresh buffer from 1 M HEPES pH 8, 1 M MgCl2, 1 M DTT and 10% Triton x-100 stocks for each experiment. • Cdc7/ASK is purchased from commercial suppliers and used in the assay at a final assay concentration of 0.847 ng/μL or 9.2 nM. • MCM2 peptide is purchased from commercial suppliers and used in the assay at a final assay concentration of 2.5 μM. • ATP used in the assay at a final assay concentration of 12.5 μM. Methods • 1. Prepare intermediate (daughter) compound plate by transferring 2 μL of compound from the mother plate to 18 μL of 33.3% DMSO in a clear polypropylene plate. • 2. Dry-spot 1 μL of compound from the intermediate compound plate to empty assay plate. • 3. Add 5 μL of 1.694 ng/μL CDC7/ASK working solution to ‘test’ and ‘control’ wells or […] of 2× Assay Buffer to ‘blank’ wells. • 4. Add 4 μL 2.5 μM peptide/12.5 μM ATP working solution to all wells. • 5. Incubate at 37° C. for 1 hour then remove from the incubator and leave for a further 1 hour at room temperature. • 6. Place plate into an EZReader II to read.
Percentage inhibition values were calculated from % of substrate conversion values, using the no compound (DMSO) and no enzyme control values as 0% and 100% inhibition, respectively. IC50 determination was performed with ExcelFit software (IDBS) using curve fit 205. Z′ factors were determined for each plate tested and were all above 0.5.

The target of the next experiment is Cdc7/Dbf4 (Homo sapiens, UniProt O00311). Kind of experiment: Cdc7 Biochemical Assay Method 3: Cdc7/Dbf4 Enzyme TR-FRET Assay measuring pS40MCM2. The note with it: 1 μM ATP, read-out: Biochemical Method 3 (pIC50) (converted). The essentials:
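2.5 nM Cdc7/Dbf4 incubated with 100 nM biotinylated MCM2-derived peptide and 1 μM ATP, 120 minutes at 25° C. Phospho-S40 detected by TR-FRET using anti-pS40 Mcm2 antibody, terbium anti-rabbit secondary and streptavidin-Alexa Fluor488.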
(In general: Time-resolved FRET reads energy transfer from a long-lived donor to a nearby acceptor.)

Experiment [2] relates to Cdc7 (pS40MCM2 levels in HCT116 cells). Kind of experiment: Cdc7 Cell Pharmacodynamics Assay Method 2A: pS40MCM2 levels in HCT116 cells, 6 hours. The class given is cell-based. The note with it: Homo sapiens, HCT-116, read-out: Biomarker Method 2A (pEC50) (converted). From the text: This protocol describes a method to investigate the inhibition of Cdc7 activity by measuring pS40MCM2 levels in cells, after treatment with compounds.
• HCT116 cells (ATCC, #CCL-247) • McCoys 5A with L-glutamine (Cellgro, #10-050-CV) • 10% FCS (Cellgro, #35-010-CV) • D-PBS without CaCl2 and MgCl2 (Cellgro, #21-031-CV) • Trypsin/EDTA (Cellgro, #25-052-CL) • BSA (Calbiochem, 126593) • Cell Extraction Buffer (Invitrogen FNN0011) • Protease inhibitor cocktail (Sigma P-2714) • PMSF 0.3M stock in DMSO (Sigma P7626) • Antibody-rabbit pMCM2 Ser40 (Abcam, AB133243) • Antibody-goat MCM2 (Bethyl #A300-122A) • Antibody-goat Anti Rabbit IgG HRP (Thermo, 31462) • SuperSignal ELISA Pico Chemiluminescent Substrate (Perbio Science UK Ltd 37069) • 10×PBS (Growcells, MRGF-6236) • Triton X100 (Sigma, P-T8787) • DMSO (Fisher, D128-1) • 2-Propanol (J. T. Baker, 9095-03) Method • Seed 1×10^6 HCT116 cells into each of two 175 cm^2 flask containing 30 mL Cell Growth Media and incubate at 37° C., 5% CO2 for 3 days. • Harvest the cells from one T175 cm^2 flask and count. • Dilute with Cell Growth Media to a cell density of 2×10^5. Dispense 100 μL to each well (20,000 HCT116 cells/well) of TC treated 96-well plate(s). • Allow cells to settle overnight in incubator set at 37° C. and 5% CO2. • Cell treatment: Transfer 0.25 μL/well from the compound plate to the wells of the cell plate(s). This is a 1:400 dilution of compound in the assay. • Once all cells are treated place the cells back to the incubator and incubate for either 6 hours (Method 2A) or 18 hours (Method 2B). • Dilute the capture antibody (total MCM2#A300-122A) 1 in 250 in the required volume of PBS (5 mL per assay plate, plus 5 mL for dead volume) and add 50 μL to each well of a Hybond plate except wells A12 & B12. Seal the plate and incubate at room temperature for a minimum of 2 hours. • Defrost aliquot of Invitrogen Cell Extraction Buffer (FNN0011) on ice and supplement with appropriate volume of both Sigma protease inhibitor cocktail (P-2714) and PMSF (final conc 1 mM from a 1 M stock in DMSO). • After the 6 hour or 18 hour cell treatment time, tap out the media from the assay plates and place them in the −70° C. freezer for at least 5 minutes. • Flick out the remaining liquid in the previously prepared capture Ab plate(s) and add 200 μL 2% BSA per well. Incubate for 1 hour at room temperature. • Remove plates from freezer and add 20 μL of ice cold complete lysis buffer. Incubate cells for 30 minutes at 4° C. • Add 30 μL per well 2% BSA • At the end of the 1 hour incubation, wash the Capture/ELISA plate(s) with Wash Buffer on the BioTek plate washer. • Transfer 40 μL per well of the lysis plate(s) to the same wells in the Capture/ELISA plate. Incubate cells overnight at 4° C. • At the end of the overnight incubation, wash the ELISA plate(s) with Wash Buffer on BioTek plate washer. • Prepare Detection Antibody Buffer and dispense 50 μL to all wells of ELISA plate(s) except wells G1 & H1. Cover plate and incubate at room temperature for 2 hours with gentle shaking. • At the end of the 2 hour incubation, wash the ELISA plate(s) with Wash Buffer on the BioTek plate washer. • Prepare the Conjugated Antibody Buffer and dispense 50 μL to all wells of ELISA plate(s). • Cover the plate and incubate at room temperature for 1 hour with gentle shaking. • At the end of the 1 hour incubation, wash the ELISA plate(s) with Wash Buffer on the BioTek plate washer. • Prepare Substrate Buffer and dispense 50 μL to all wells of ELISA plate(s). • Incubate for a minimum of 10 minutes and read plates on the EnVision 2100 Multilabel Reader (Mirror: Luminescence (404) & Luminescence 700 (212); Measurement Height: 6.5 mm; Measurement Time: 0.2 s). Method 3

Chain of Cdc7/ASK (O00311 whole entry): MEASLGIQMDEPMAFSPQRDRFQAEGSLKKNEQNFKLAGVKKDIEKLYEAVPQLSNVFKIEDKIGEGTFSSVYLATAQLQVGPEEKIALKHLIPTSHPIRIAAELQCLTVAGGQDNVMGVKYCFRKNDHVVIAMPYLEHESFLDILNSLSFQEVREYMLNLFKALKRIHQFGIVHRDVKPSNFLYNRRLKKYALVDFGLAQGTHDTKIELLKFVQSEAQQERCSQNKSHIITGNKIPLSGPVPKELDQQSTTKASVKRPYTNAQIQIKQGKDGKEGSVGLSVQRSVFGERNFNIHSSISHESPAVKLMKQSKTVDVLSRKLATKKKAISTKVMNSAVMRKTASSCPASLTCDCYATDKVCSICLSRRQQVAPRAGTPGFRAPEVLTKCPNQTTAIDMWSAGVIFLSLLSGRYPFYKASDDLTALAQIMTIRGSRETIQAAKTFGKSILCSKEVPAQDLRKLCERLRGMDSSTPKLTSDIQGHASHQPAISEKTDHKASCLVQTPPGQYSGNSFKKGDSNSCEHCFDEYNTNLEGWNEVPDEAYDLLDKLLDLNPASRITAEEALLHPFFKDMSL
Chain of Cdc7/ASK (Q9UBU7 whole entry partner): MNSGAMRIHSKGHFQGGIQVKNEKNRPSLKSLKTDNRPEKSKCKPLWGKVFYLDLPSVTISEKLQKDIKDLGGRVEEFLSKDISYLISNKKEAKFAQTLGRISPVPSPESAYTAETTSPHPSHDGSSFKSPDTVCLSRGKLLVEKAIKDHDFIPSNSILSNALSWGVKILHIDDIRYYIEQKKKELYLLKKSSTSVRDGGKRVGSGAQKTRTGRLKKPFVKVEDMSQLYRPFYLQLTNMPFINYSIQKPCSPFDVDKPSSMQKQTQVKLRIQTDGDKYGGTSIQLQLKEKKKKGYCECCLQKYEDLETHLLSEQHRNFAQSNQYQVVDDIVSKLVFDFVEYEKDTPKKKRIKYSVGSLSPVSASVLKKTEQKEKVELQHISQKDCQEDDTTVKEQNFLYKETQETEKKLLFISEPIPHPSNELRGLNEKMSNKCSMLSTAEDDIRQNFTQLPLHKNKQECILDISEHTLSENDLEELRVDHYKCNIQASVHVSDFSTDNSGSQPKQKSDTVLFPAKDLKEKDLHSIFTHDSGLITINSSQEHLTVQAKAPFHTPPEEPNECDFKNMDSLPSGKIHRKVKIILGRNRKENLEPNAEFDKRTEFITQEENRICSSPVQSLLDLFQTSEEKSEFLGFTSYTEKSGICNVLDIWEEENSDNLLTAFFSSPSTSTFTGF
Chain of Cdc7/Dbf4 (O00311 whole entry): as the sequence (O00311 whole entry) above
Chain of Cdc7/Dbf4 (Q9UBU7 whole entry partner): as the sequence (Q9UBU7 whole entry partner) above

For `CC(C)(C)[C@H]1CN(c2nc(-c3ccnc(F)c3)[nH]c(=O)c2Cl)CCN1` [Compound 322], the EC50 in experiment [1] was 42.7 nM. Further, at Cdc7/ASK, the IC50 was 1.38 nM.

On to `CC(C)[C@H]1CN(c2nc(-c3ccncc3)[nH]c(=O)c2Br)CCN1` [Compound 408, 5-bromo-4-[(3S)-3-isopropylpiperazin-1-yl]-2-(4-pyridyl)-1H-pyrimidin-6-one], for which the EC50 in experiment [1] was 257 nM. The IC50 at Cdc7/ASK was 5.25 nM.

For `CC(F)(F)[C@H]1CN(c2nc(-c3ccnc(F)c3)[nH]c(=O)c2Cl)CCN1` [Compound 315], the EC50 in experiment [1] is 63.1 nM. In addition, the IC50 on Cdc7/ASK was 1.51 nM.

For the molecule `NC1CCN(c2nc(-c3ccnc(F)c3)[nH]c(=O)c2Cl)CC1` [Compound 321], in experiment [1], the EC50 was 457 nM. Besides, the IC50 at Cdc7/ASK was 2.29 nM.

Turning to `CC1CNCCN1c1nc(-c2ccncc2)[nH]c(=O)c1Cl` (centres unmarked) [Compound 368], the EC50 in experiment [1] was 15.5 nM. The IC50 on Cdc7/ASK is 0.603 nM.

Take `CC(C)[C@H]1CNCCN1c1nc(-c2ccncc2)[nH]c(=O)c1Cl` [Compound 370]: the EC50 in experiment [1] is 1020 nM. For the same molecule, the IC50 at Cdc7/ASK is 12 nM.

Take `CC[C@@H]1CNCCN1c1nc(-c2ccncc2)[nH]c(=O)c1Cl` [Compound 371]: in experiment [1], the EC50 was 245 nM. For the same molecule, the IC50 at Cdc7/ASK was 3.09 nM.

On to `C[C@H]1COCCN1c1nc(-c2ccncc2)[nH]c(=O)c1Cl` [Compound 365], for which the EC50 in experiment [1] was 263 nM. The IC50 on Cdc7/ASK was 7.08 nM.

With `CC[C@H]1CNCCN1c1nc(-c2ccncc2)[nH]c(=O)c1Cl` [Compound 369], in experiment [1], the EC50 is 891 nM. For the same molecule, the IC50 on Cdc7/ASK is 5.5 nM.

Turning to `N[C@H]1CCN(c2nc(-c3ccnc(F)c3)[nH]c(=O)c2Cl)C1` [Compound 320], the IC50 is 0.794 nM at Cdc7/Dbf4 and 3.72 nM on Cdc7/ASK. Also, the EC50 in experiment [2] is 316 nM.

Consider `CC(C)(C)[C@H]1CN(c2nc(-c3ccncc3)[nH]c(=O)c2Br)CCN1` [Compound 410, 5-bromo-4-[(3S)-3-tert-butylpiperazin-1-yl]-2-(4-pyridyl)-1H-pyrimidin-6-one], for which the EC50 in experiment [1] was 269 nM. In addition, the IC50 on Cdc7/ASK was 9.12 nM.
